# Assay results reported in patent publication US6890954B1, “Uses of 2-bromopalmitate in the treatment of autoimmune disease” (priority 1999, dated 2005).
# Columns and labels:
# Assay type in all cases: cell-based
# Fyn(16)-eGFP = assay: Localization of Fyn(16)-eGFP in COS-1 cells (fluorescence microscopy, P100/S100 fractionation)
# Protocol: COS-1 cells were transfected with a Fyn(16)-eGFP construct (12) and seeded onto 25-mm glass coverslips 2 days prior to the experiment. Cells were treated overnight with or without 2 bromopalmitate as described above. Plates were washed with PBS and coverslips were mounted onto glass slides in PBS and observed with a 40× and 100×oil immersion lens on a Zeiss Axiophot 2 microscope and photographed with Kodak TMAX 400.
# To investigate the effect of 2-bromopalmitate on the intracellular localization of Fyn more precisely, COS-1 cells expressing a Fyn(16)-eGFP construct were examined by immunofluorescence. This construct contains the first 16 amino acids of Fyn fused in frame to eGFP; the chimera is targeted to the plasma membrane and detergent resistant microdomains (12). Cells were cultured with no treatment, with 2-bromopalmitate or with 2-hydroxymyristate, a known myristoylation inhibitor (40,41), as described above, and were examined live by fluorescence microscopy.
# Analysis of the subcellular localization of Fyn(16)-eGFP in the presence of 2-bromopalmitate and 2-hydroxymyristate was performed as described above for steady-state Fyn. As depicted in FIG. 2B, in the absence of treatment, 80% of Fyn(16)-eGFP Fyn was membrane bound, whereas in cells treated with 2-bromopalmitate and 2-hydroxymyristate, 65% and 78% of Fyn(16)-eGFP were cytosolic, respectively.
# Fyn [1] = target: T1, Fyn (Homo sapiens, UniProt P06241); assay: Fyn fatty acylation (IC13/IC16 incorporation) in transfected COS-1 cells; conditions: for effect of palmitate analog on Fyn fatty acylation: COS-1 cells, data not shown
# T1 construct: expressed in transfected cells; host or cells: COS-1
# Protocol: The syntheses of 13-[^125I]-iodotridecanoic acid (IC13)or 16-[^125I]-iodohexanoic acid (IC16) were carried out as described previously (39). Cell labeling was carried out as described (12,13) with modifications. Briefly, each 60 mm plate of Fyn transfected COS-1 cells was incubated O/N in DMEM containing 2.5% FBS, 0.5% defatted BSA (Sigma) with or without 100 μM 2-bromopalmitate or 50 μM polyunsaturated fatty acid. Prior to labeling, the cells were incubated for 1 hr with 1 ml of DMEM containing 2% dialyzed FBS, then labeled for 4 hours with 25-50 μCi IC13 or IC16 in DMEM containing 2% dialyzed FBS, 0.5% defatted BSA with or without 2-bromopalmitate or polyunsaturated fatty acid. Labeled cells were washed three times with cold STE (100 mM NaCl, 10 mM Tris pH 7.4, 1 mM EDTA) and lysed in 0.6 ml of cold RIPA buffer containing protease inhibitors (10 μg/ml each of benzamidine, AEBSF, TPCK and TLCK, 1.5 μg/ml each of Leupeptin, Pepstatin A and Aprotinin). Lysates were clarified at 100,000×g for 15 min at 4° C. in a Beckman TL-100 ultracentrifuge. Lysates were immunoprecipitated with rabbit anti-Fyn antibody and protein A-agarose. Immunoprecipitates were washed three times with cold RIPA buffer and suspended in 1× sample buffer containing 100 mM dithiothreitol and subjected to SDS-PAGE. Gels were dried between cellophane and analyzed by phosphorimaging after 12-36 hours exposure. Experiments in Jurkat T cells were carried out according to the above protocol using 2×10^7 cells per experiment, and reducing the incubation time with 2-bromopalmitate to 3-4 hours.
# A number of palmitic acid analogs were screened for their ability to inhibit Fyn palmitoylation. COS-1 cells were transfected with cDNA encoding Fyn. Three days after transfection, the cells were labeled with either [^35S]-methionine, 13-[^125I]-iodotridecanoic acid (IC13), an iodinated myristate analog, or 16-[^125I]-iodohexanoic acid (IC16), an iodinated palmitic acid analog (39), in the presence or absence of nonradioactive palmitate analogs. Cells were lysed, immunoprecipitated with anti-Fyn antibody, and analyzed by SDS-PAGE and phosphorimaging. […] When normalized for total protein levels, 70% of Fyn myristoylation and over 90% of Fyn palmitoylation was inhibited in the presence of 2-bromopalmitate. Treatment of cells with other analogs, including 2-hydroxypalmitate, palmitoleic acid and 16-hydroxypalmitate had no effect (data not shown).
# To test this hypothesis, Fyn transfected COS-1 cells were incubated O/N with or without 50 μM arachidonic acid (20:4) or eicosapentaenoic acid (20:5), then labeled with IC13 or IC16. Total protein levels were monitored by immunoblotting aliquots of each sample with anti-Fyn antibody (FIG. 8A, lower panel).
# Fyn [2] = assay: DRM localization of Fyn in PUFA-treated COS-1 cells (sucrose gradient); conditions: COS-1, 50 μM PUFA; untreated 30%
# Protocol: For isolation of detergent resistant microdomains in PUFA-treated COS-1 cells, a confluent 100 mm plate of COS-1 cells transiently transfected with Fyn cDNA was washed with S-IE and subjected to the same procedure described above. Fractions were analyzed for the presence of Fyn by immunoblotting.
# Whether 20:4 and 20:5 inhibited localization of Fyn to detergent resistant microdomains in COS-1 cells was examined next. Cells were treated with or without polyunsaturated fatty acids as described above and layered on the bottom of a sucrose gradient as described above. Fractions were collected and analyzed by immunoblotting with anti-Fyn antibody.
# T1 sequence (P06241 whole entry, species assumed): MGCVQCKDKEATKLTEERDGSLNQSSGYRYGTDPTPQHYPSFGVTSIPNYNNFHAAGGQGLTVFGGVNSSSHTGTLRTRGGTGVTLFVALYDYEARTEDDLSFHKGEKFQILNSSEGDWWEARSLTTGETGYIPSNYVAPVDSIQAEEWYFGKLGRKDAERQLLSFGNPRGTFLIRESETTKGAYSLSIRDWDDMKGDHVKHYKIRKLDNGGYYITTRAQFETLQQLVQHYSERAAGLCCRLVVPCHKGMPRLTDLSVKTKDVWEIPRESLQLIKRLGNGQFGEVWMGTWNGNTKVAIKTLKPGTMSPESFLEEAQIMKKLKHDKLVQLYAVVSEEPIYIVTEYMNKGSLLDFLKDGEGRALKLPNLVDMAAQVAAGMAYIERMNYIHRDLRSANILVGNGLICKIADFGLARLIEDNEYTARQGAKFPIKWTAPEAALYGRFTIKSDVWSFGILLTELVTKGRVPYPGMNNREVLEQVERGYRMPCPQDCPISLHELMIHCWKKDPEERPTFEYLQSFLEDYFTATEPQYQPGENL
SMILES,effect of palmitate analog on Fyn fatty acylation (Fyn [1]),"inhibition of incorporation of IC16 into Fyn (palmitoylation) (Fyn [1]; COS-1, 50 μM PUFA overnight) [%]",Fyn found in detergent resistant microdomains (Fyn [2]) [%],further results
"CCCCCCCCCCCCC(O)C(=O)O (stereo not shown) [2-hydroxymyristate, reference compound]",–,–,–,"Fyn(16)-eGFP cytosolic (Fyn(16)-eGFP; COS-1, 100 μM overnight, P100/S100, untreated 80% membrane bound): 78%; Fyn(16)-eGFP distribution by fluorescence microscopy (Fyn(16)-eGFP; COS-1 live cells, 100 μM overnight): reduced plasma membrane staining"
CCCCCCCCCCCCCCC(O)C(=O)O (stereo not shown) [2-hydroxypalmitate],no effect,–,–,–
O=C(O)CCCCCCCCCCCCCCCO [16-hydroxypalmitate],no effect,–,–,–
CCCCC/C=C\C/C=C\C/C=C\C/C=C\CCCC(=O)O [arachidonic acid],–,55,16,"effect on Fyn myristoylation (IC13 incorporation) (Fyn [1]; COS-1, 50 μM PUFA overnight): almost no effect"
CC/C=C\C/C=C\C/C=C\C/C=C\C/C=C\CCCC(=O)O [eicosapentaenoic acid],–,65,5.3,–
CCCCCC/C=C\CCCCCCCC(=O)O [palmitoleic acid],no effect,–,–,–
